Test results taken from publication PMC8279416, “Structural Fine-Tuning of Desmuramylpeptide NOD2 Agonists Defines Their In Vivo Adjuvant Activity” (Journal of Medicinal Chemistry, 2021).

Columns and labels:
human PBMCs = experiment: Cytokine release from peripheral blood mononuclear cells (cytometric bead array); type: cell-based; conditions: 2 μM, 18 h, without LPS
Procedure: The immunostimulatory effects of the selected desmuramylpeptides were evaluated using human primary peripheral blood mononuclear cells (PBMCs). This heterogeneous mixture of immune cells allowed the study of the effects of these NOD2 agonists in a physiologically relevant system, where other NOD2-interacting and downstream signaling proteins were present. The effects of desmuramylpeptides were first determined for the secreted cytokine profile using a cytometric bead array cytokine kit. Moreover, considering that activation of NOD2 is also an important amplification signal for Toll-like receptor (TLR)-induced inflammatory responses,[79]−[81] we also examined the effects on cytokine secretion of the combination of desmuramylpeptides with LPS, a well-known TLR4 agonist.
In line with previous studies, the effects of MDP and the desmuramylpeptides were most pronounced for the induction of the chemokine IL-8.[82]
Peripheral blood mononuclear cells were seeded (1 × 10^6 cells/mL) in 48-well plates in 500 μL of growth medium and treated with the compounds (2 μM) or with the corresponding vehicle (0.1% DMSO) in the absence and presence of LPS (10 ng/mL). Cell-free supernatants were collected after 18 h of incubation (37 °C, 5% CO2) and stored at −80 °C until tested. Cytokine production was determined with the BD Cytometric Bead Array Human Inflammatory Cytokines Kit (contents: IL-8, IL-1β, IL-6, IL-10, TNF, IL-12p70; BD Bioscience) on an Attune NxT flow cytometer (Thermo Fisher Scientific, Waltham, MA, U.S.A.). Standard curves were generated using recombinant cytokines contained in the kit. The data were analyzed using the FlowJo (Tree Star, Inc., Ashland, OR, U.S.A.) and Prism (GraphPad, San Diego, CA, U.S.A.) software. The experiments were repeated as four independent biological replicates. Statistical significance was determined by repeated measures one-way ANOVA followed with Dunnett’s multiple comparisons test.

NIH/OlaHsd mice = experiment: In vivo ovalbumin-specific antibody response, first experiment (neutral liposomes); parameters: species or system mouse; conditions: for Log10 (anti-OVA IgG1/anti-OVA IgG2a): first in vivo experiment, one week after the booster dose, mean ± SEM of 5 mice; for Boost in the elicited ovalbumin-specific IgG response: vs liposomes without adjuvant
Procedure: To determine whether enhanced antigen presentation in vitro is correlated to in vivo adjuvant activities, an immunization study was performed in a murine model of adjuvanticity. Specifically, the selected desmuramylpeptides were investigated for induction of systemic immune responses against the model antigen ovalbumin. Seven groups of NIH/OlaHsd mice were immunized with ovalbumin-containing neutral liposomes, either alone or with additional adjuvants of MDP or the desmuramylpeptides 1, 68, 74, 75, or 81. After immunization and one booster dose, the mice sera were collected and assayed for ovalbumin-specific IgG antibodies (Figure 10).
Multilamellar liposomes were prepared by the modified thin lipid film method as described previously.[130],[131] For the preparation of neutral liposomes, a 7:5 molar ratio of egg-phosphatidylcholine and cholesterol was used. For the preparation of negatively charged liposomes, a 7:5:1 molar ratio of egg-phosphatidylcholine, cholesterol, and dicetylphosphate was used, while a 7:5:0.5 molar ratio of egg-phosphatidylcholine, cholesterol, and Man-PEG-Pam was used in the preparation of mannosylated liposomes. Lipids (total lipid concentration, 4 mg/mL) were dissolved in chloroform/methanol (2:1). A methanol or chloroform/methanol solution of MDP or the desmuramylpeptides was added to the lipid solution for a final concentration of 2 mM and 1.5 mM for the first (Figure 10) and second (Figure 11) experiments, respectively. After rotary evaporation of the solvent, the remaining lipid film was dried in vacuum for 1 h and then dispersed by gentle handshaking in an ovalbumin solution in saline (0.0667 and 0.1 mg/mL for the first and second experiments, respectively). This was then left overnight at 4 °C to swell and stabilize. Liposome size was reduced by sonification. Nonentrapped material was not separated from liposomes, and the complete liposome suspension was used for immunizations.
For the first experiment (Figure 10), sex-matched NIH/OlaHsd mice (five per group) were immunized subcutaneously in the tail base and boosted one time after 21 days. The injection volume in all experimental groups was 0.15 mL per mouse, which corresponds to 10 μg of OVA, […], and 0.30 μmol of MDP and desmuramylpeptides. For the second experiment (Figure 11), sex-matched NIH/OlaHsd mice (five per group) were immunized and boosted two times subcutaneously into the tail base at 21-day intervals. The injection volume in all experimental groups was 0.1 mL per mouse, which corresponds to 10 μg of OVA, 400 μg of lipids, and 0.15 μmol of MDP and 75. The mice were anesthetized with ip application of ketamine/xylazine (25 mg/kg each) prior to blood collection from the axillary plexus on the seventh day after the last booster dose. Individual serum from each animal was decomplemented at 56 °C for 30 min and then stored at −20 °C until tested.
ELISA assays were performed as detailed previously.[46] Briefly, high-binding ELISA plates (Costar, U.S.A.) were coated with a 15 μg/mL solution of ovalbumin in carbonate buffer, pH 9.6, and incubated overnight at room temperature. Nonspecific antibody binding was blocked with 0.5% w/v bovine serum albumin in PBS-T (0.05% (v/v) Tween 20 in phosphate-buffered saline) for 2 h at 37 °C. After washing, five serial dilutions of mice sera and standard preparations were added in duplicate. Plates were incubated overnight at room temperature, washed, and analyzed for ovalbumin-specific IgG levels by incubation with HRP-conjugated goat anti-mouse IgG (2 h at 37 °C) and then, after washing, with 0.6 mg/mL o-phenylenediaminedihydrochloride solution in citrate-phosphate buffer, pH 5.0, with 0.5 μL of 30% H2O2 per milliliter for 30 min at room temperature in the dark. The enzymatic reaction was stopped with 12.5% H2SO4, and absorbance at 492 nm was measured using a microplate reader (Thermo Fisher Scientific, Waltham, MA, U.S.A.). […]

[1] = neutral liposomes, 0.30 μmol adjuvant per dose, 1 week after booster
[2] = neutral liposomes, 0.30 μmol adjuvant per dose, s.c., 1 week after booster

| SMILES | Induction of cytokines IL-1β, IL-6, IL-8 and TNF-α, compound alone (human PBMCs) | Log10 (anti-OVA IgG1/anti-OVA IgG2a) (NIH/OlaHsd mice) | Ovalbumin-specific IgG1 response (in words) (NIH/OlaHsd mice; [1]) | Ovalbumin-specific IgG2a response (in words) (NIH/OlaHsd mice; [1]) | Boost in the elicited ovalbumin-specific IgG response (NIH/OlaHsd mice; [2]) | Adjuvant activity: ovalbumin-specific IgG (in words) (NIH/OlaHsd mice; [2]) |
| --- | --- | --- | --- | --- | --- | --- |
| CCCCCCCCCCCCCCCCCC(=O)Oc1ccc(/C=C/C(=O)NCC(=O)N[C@H](C(=O)N[C@H](CCC(=O)OCC)C(=O)OCC)C(C)C)cc1OC [Compound 75, Diethyl ((E)-3-(3-Methoxy-4-(stearoyloxy)phenyl)acryloyl)glycyl-L-valyl-D-glutamate] | induced lower responses | 2.07 ± 0.17 | significantly enhanced | highest levels of IgG2a antibodies | 5 fold |  |
| COc1cc(/C=C/C(=O)NCC(=O)N[C@H](C(=O)N[C@H](CCC(=O)OC2CCCC2)C(=O)OC2CCCC2)C(C)C)ccc1O [Compound 68, Dicyclopentyl ((E)-3-(4-Hydroxy-3-methoxyphenyl)acryloyl)glycyl-L-valyl-D-glutamate] | induced small increases in the levels of all four of these cytokines | 2.28 ± 0.13 |  | slight suppression of the IgG2a response |  | devoid of adjuvant activity |
| CCCCCCCCCCCCCCCCCC(=O)Oc1ccc(/C=C/C(=O)NCC(=O)N[C@H](C(=O)N[C@H](CCC(=O)OCC)C(=O)OCC)[C@@H](C)O)cc1OC [Compound 81, Diethyl ((E)-3-(3-Methoxy-4-(stearoyloxy)phenyl)acryloyl)glycyl-L-threonyl-D-glutamate] | induced lower responses | 2.18 ± 0.24 | largely IgG1-based response |  | 3 fold |  |
